This is an account of results in US20140220112A1, “TRANSFORMATION OF DRUG CYCLODEXTRIN COMPLEX COMPOSITIONS INTO COMPOSITIONS OF MIXTURES OF LIPID VESICLE ENCAPSULATED DRUG AND CYCLODEXTRIN DRUG COMPLEXES” (Zoneone Pharma, Inc., priority 2013, published 2014).

Data set [1] in a line: Loading of hydroxypropyl cyclodextrin solubilized SN-38 into LUV containing acetate-PEI salt. As to conditions: LUV 20 mM total lipid, 12 hours at room temperature. The class given is physicochemical. The protocol: Lipids are dissolved in ethanol at a concentration of 500 mM POPC/Cholesterol/PEG-DSPE: 3/2/0.15 (591 mg/mL total lipid) at 65° C. and the 9 volumes of the trapping agent solution, polyethyleneimine (PEI) MW 1300 titrated to pH 7.4 with glacial acetic acid to form the acetate polyethyleneimine salt, is heated to 65° C. then added to the ethanol/lipid solution also at 65° C. This mixture is vortexed and transferred to a 10 mL thermostatically controlled (65° C.) Lipex Extruder. The LUV are formed by extruding 10 times through polycarbonate membranes having 0.1 um pores. After extrusion, the LUV are cooled on ice. A transmembrane electrochemical gradient is formed by placing the liposomes in dialysis tubing having a molecular weight cut off of 12,000-14,000. The samples are dialyzed against 5 mM HEPES, 10% sucrose pH 6.5 (stirring at 4° C.) at volume that is 100-fold greater than the liposome sample volume. The dialysate is changed after 2 h then 4 more times after 12 h each. The conductivity of the liposome solution was measured and was indistinguishable from the dialysis medium ˜40 μS/cm.
The LUV (20 mM total lipid containing a greater concentration of acetate-PEI salt on the inside than on the outside) are mixed with the hydroxypropyl cyclodextrin solubilized SN-38 (24 mg/mL hydroxylpropylcyclodextrin and 2 mg/mL SN-38) and allowed to incubate for 12 hours at room temperature. […]

Data set [2] is described as follows: Encapsulation of aripiprazole from Abilify (SBECD solution) into LUV, liquid/liquid protocol. The format is physicochemical. The settings on record: LUV HSPC/Cholesterol/PEG-DSPE. The protocol: (§1) A portion of the lyophilized cake of GEODON® (Pfizer) was weighed out and dissolved in deionized water. The amount of the active ingredient (ziprasidone) was calculated by multiplying the cake weight by 0.0625 and added to liposomes from a 1 mg/mL solution. In certain experiments the lyophilized cake was reconstituted with the aqueous liposome preparation at defined lipid to drug ratios (liquid/liquid system). In other cases the lyophilized cake was directly rehydrated with the liposome suspension (liquid/solid system). The LUV were diluted with 5 mM Hepes, 10% sucrose pH 6.5. The liposome/drug solution was transferred to a 65° C. bath and swirled every 30 s for the first 3 min and then swirled every 5 min over a total heating time of 30 min. After heating for 30 min all samples were placed on ice for 15 min. the loaded liposomes were vortexed and 100 μL of sample was kept as the “before column” and the rest purified by ion exchange chromatography and gel filtration chromatography. Amberlite IRA-67 anion exchange resin was prepared by washing with 1N NaOH, followed by 3 washes with ddH2O and 3 washes with 3N HCl. The resin was exhaustively washed with dH2O until the pH of the supernatant was neutral. The SBCD was removed by adding 70 mg of resin to the eppendorf containing the liposomes and mixed well. The LUV solution was then purified by gel filtration chromatography (Sephadex G25) to remove residual extraliposomal drug. The turbid liposome fraction was collected and analyzed by HPLC.
ABILIFY® Injection is available in single-dose vials as a ready-to-use, 9.75 mg/1.3 mL (7.5 mg/mL) clear, colorless, sterile, aqueous solution for intramuscular use only. […] The active ingredient in Abilify® (Bristol-Myers), aripiprazole (7.5 mg/mL) was introduced to the LUV (HSPC/Cholesterol/PEG-DSPE: 3/2/0.15 mole ratio) at a drug to total lipid ratio of 50 g drug/mol HSPC (drug to total lipid ratio (wt/wt) of 0.12) or 100 g/mol (0.24 wt/wt) or 200 g/mol (0.48 wt/wt). […]

Data set [3] is described as follows: Loading of carfilzomib from the lyophilized Kyprolis vial into the core of added LUV. The class given is physicochemical. The protocol:
A 30 mL preparation of LUVs composed of HSPC/Cholesterol/PEG2000-DSPE at lipid concentration of 15 mM lipid (circa 300 mg lipid) is prepared by the extrusion process through 100 nm polycarbonate membranes in a 250 mM ammonium sulfate solution to yield a 100 nm diameter LUV suspension of encapsulated ammonium sulfate. The LUV are dialyzed against 500 volumes of 0.15 M NaCl to remove non-encapsulated ammonium sulfate. The liposome suspension is then passed through a 0.2 micron sterile membrane into a sterile tube. The liposome solution (29 mL) is added aseptically to the vial containing 60 mg of carfilzomib at room temperature. The vial is gently mixed not shaken, for about 1 minute, or until the cake or powder is completely solubilized. The rehydrated solid is incubated for 40 minutes at 37° C. The carfilzomib is substantially loaded (>60%) into the core of the liposome at the end of the incubation period. The 100 nm diameter of the liposomes is not altered by this rehydration incubation process. The temperature of the vial is then reduced to 4° C. until the mixture of CD, drug-loaded liposome are injected into the subject.
The pharmacokinetic behavior of preparation of carfilzomib can be easily modulated by adjusting the amount of LUV containing ammonium sulfate or triethylamine sulfate that are added to the vial of Kyprolis®. […]

For data set [4] the following is noted: cited from earlier work.
Data set [5] can be described thus: Incorporation of maropitant from Cerenia (SBCD) into lyophilized MLV with encapsulated triethylamine sulfate. The class given is physicochemical. The settings on record: MLV POPC/Chol/DSPG, 60° C. 30 minutes. The protocol: Maropitant citrate is used for the prevention of acute vomiting in dogs and cats. The MLV formulation described in example 4 is prepared with 250 mM triethylamine sulfate in place of ammonium sulfate. The formulation is lyophilized to provide a cake consisting of 120 mg sucrose and a 1.2 μmoles total lipid of a liposome with a lipid composition of POPC/Chol/DSPG mole ratio 3/2/0.15 with a higher concentration of triethylamine sulfate on the inside than on the outside. The contents of the 20 mL Cerenia® Injectable Solution vial which contains 10 mg maropitant, 63 mg sulphobutylether-beta-cyclodextrin, 3.3 mg meta-cresol per mL is slowly added to the vial of lyophilized liposomes and the vial is slowly rotated to rehydrate the MLV at room temperature. The milky white mixture is allowed to stand at 60° C. for 30 minutes. The percent of the maropitant that is incorporated into the liposome is about 60% of the total maropitant in the vial. […] Approximately 40% of the drug remains associated with the SBCD. This formulation is suitable for subcutaneous injection to prevent vomiting associated with chemotherapy.

The nature of data set [6]: Encapsulation of ziprasidone from Geodon (SBCD complex) into ammonium sulfate LUV liposomes, HPLC after purification. The format is physicochemical. The settings on record: 65° C. 30 min; for % ziprasidone entrapped in liposome from suspension of ziprasidone: liquid/liquid system; for % ziprasidone entrapped in liposome from reconstitution of Geodon cake: liquid/solid system. The protocol:
Alternatively, lipids were dissolved in ethanol at a concentration of 500 mM HSPC/Cholesterol/PEG-DSPE: 3/2/0.15 (591 mg/mL total lipid) at 65° C. and the 9 volumes of the trapping agent solution heated to 65° C. was added to the ethanol/lipid solution also at 65° C. and the mixture was vortexed and transferred to a 10 mL thermostatically controlled (65° C.) Lipex Extruder. The LUV were formed by extruding 10 times through polycarbonate membranes having 0.1 um pores. After extrusion the liposomes were cooled on ice. The transmembrane electrochemical gradient was formed by purification of the liposomes by dialysis in dialysis tubing having a molecular weight cut off of 12,000-14,000. The samples are dialyzed against 5 mM HEPES, 10% sucrose pH 6.5 (stirring at 4° C.) at volume that is 100 fold greater than the sample volume. The dialysate was changed after 2 h then 4 more times after 12 h each. The conductivity of the liposome solution was measured and was indistinguishable from the dialysis medium […].
The HPLC analysis of all other drugs used (such as ziprasidone, ariprazole, voriconazole etc) was performed on the same system as described for analysis of cholesterol. The mobile phase consists of −A=0.1% TFA, B=0.1% TFA/MeOH with a gradient elution starting at 40% B and increasing to 70% B in 7 min with 6 min equilibration back to 40% B. The flow rate is 1.0 mL/min, column temperature is 30 C, 10 μL injection and detection by absorbance at 254 nm. The retention times were as follows: ziprasidone 5.73 min, ariprazole 8.12 min, voriconazole 8.81 min.
as §1

Where [7] appears, read: input drug-to-lipid 100 ug/umol.
Where [8] appears, read: input drug-to-lipid 200 ug/umol.

“And” between values parts separate entries of the source, which are not always exact repeats. Equal entries are not always repeated.

Consider `CCc1c2c(nc3ccc(O)cc13)-c1cc3c(c(=O)n1C2)COC(=O)[C@]3(O)CC` [SN-38, 7-Ethyl-10-Hydroxy-Camptothecin], for which the “SN-38 transferred into the liposome, % of the added SN-38” value in data set [1] is “approximately 50%”.

Consider `O=C1CCc2ccc(OCCCCN3CCN(c4cccc(Cl)c4Cl)CC3)cc2N1` [aripiprazole], for which the “% aripiprazole entrapped in liposome when transferred from Abilify” value in data set [2] (input drug-to-lipid 50 ug/umol) is 60.16 ± 3.57%; in data set [2] (setting [7]) it was 48.4% and 48.36 ± 3.78%; in data set [2] (setting [8]) it was 43.2% and 43.22 ± 2.09%.

In the case of `CC(C)C[C@H](NC(=O)[C@H](CCc1ccccc1)NC(=O)CN1CCOCC1)C(=O)N[C@@H](Cc1ccccc1)C(=O)N[C@@H](CC(C)C)C(=O)[C@@]1(C)CO1` [carfilzomib], in data set [3] (Kyprolis vial 60 mg + 29 mL LUV (circa 300 mg lipid), ammonium sulfate, 40 minutes at 37° C.), the “carfilzomib loaded into the core of the liposome” value was above 60%. Moreover, the “amount of carfilzomib that remains complexed to the CD, fraction of total amount in the vial” value in data set [3] (liposomes added decreased from 300 mg to 200 mg of total lipid) is “about one-half”. Besides, in data set [4], the solubility in water entry is listed as “less than 10 micrograms/mL”.

With `COc1ccc(C(C)(C)C)cc1CN[C@H]1C2CCN(CC2)[C@H]1C(c1ccccc1)c1ccccc1` [maropitant], in data set [5], the “percent of the drug remaining associated with the SBCD” value is recorded as “Approximately 40%”; the “percent of the maropitant incorporated into the liposome, of total maropitant in the vial” value is “about 60%”; the “resulting drug to lipid ratio” value was “about 140 grams/mole lipid”.

Regarding `O=C1Cc2cc(CCN3CCN(c4nsc5ccccc45)CC3)c(Cl)cc2N1` [ziprasidone], the “% ziprasidone entrapped in liposome from suspension of ziprasidone” value in data set [6] (input drug-to-lipid 50 ug/umol) stood at 87.92 ± 2.35%; in data set [6] (setting [7]) it was 84.24 ± 3.14%; in data set [6] (setting [8]), 80.38 ± 3.61%; in data set [6] (input drug-to-lipid 200 ug/umol, listed as Geodon), 80.4%. In addition, the “% ziprasidone entrapped in liposome from reconstitution of Geodon cake” value in data set [6] (input drug-to-lipid 50 ug/umol) was 90.42 ± 2.91%; in data set [6] (input drug-to-lipid 50 ug/umol, listed as Geodon), 90.4%; in data set [6] (setting [7]), 75.50 ± 2.91%; in data set [6] (input drug-to-lipid 100 ug/umol, listed as Geodon) it was 75.5%; in data set [6] (setting [8]), 62.68 ± 3.27%; in data set [6] (input drug-to-lipid 400 ug/umol), 67.40 ± 3.88%. Further, the “% ziprasidone entrapped in liposome from reconstitution of Geodon cake” value came out at 67.4% in data set [6] (input drug-to-lipid 400 ug/umol, listed as Geodon) and 41.38 ± 0.81% in data set [6] (input drug-to-lipid 800 ug/umol).
